How the values were obtained:
DNA-PK = DNA-PK (Homo sapiens, UniProt P78527); assay: DNA-PK Z'LYTE in vitro enzyme assay; format: biochemical; details: 25.0 micromolar ATP; read-out: absolute IC50
Description: Use the Z'LYTE® kinase assay format (Invitrogen) to determine IC50 values against DNA-PK for a compound. This is a fluorescence based, coupled enzyme assay format based on sensitivity of phosphorylated vs. nonphosphorylated dual labeled peptide substrate (Coumerin on amino terminus, Fluorescein on carboxy terminus) to proteolysis. Use the Fluorescence Resonance Energy Transfer (FRET) ratio to monitor DNA-PK activity where phosphorylation of the peptide protects the peptide from proteolytic cleavage and the FRET of the substrate is maintained. Perform the kinase reaction using 10 microliter reaction volume in a Corning®, low volume NBS, black 384 well plate (Corning® #3676). […] Read the plate on a fluorescence plate reader with 400 nm wavelength excitation filter and emission filters of 445 and 520 nm Use the signal measured with 445 nm filter (specific to Coumarin) over the signal measured with 520 filter (specific to fluorescein) to calculate the FRET ratio. […]

[1] = test system: CXF 676 human tumor xenograft cells; assay: Oncotest tumor clonogenic assay, CXF 676; format: cell-based; details: colony formation, Colon CXF 676, adeno carcinoma, md, read-out: Absolute IC50
[2] = test system: CXF 975 human tumor xenograft cells; assay: Oncotest tumor clonogenic assay, CXF 975; format: cell-based; details: colony formation, Colon CXF 975, adeno carcinoma, md, read-out: Absolute IC50
[3] = test system: LXFA 526 human tumor xenograft cells; assay: Oncotest tumor clonogenic assay, LXFA 526; format: cell-based; details: colony formation, NSCLC LXFA 526, adeno carcinoma, pd, read-out: Absolute IC50
[4] = test system: LXFA 629 human tumor xenograft cells; assay: Oncotest tumor clonogenic assay, LXFA 629; format: cell-based; details: colony formation, NSCLC LXFA 629, adeno carcinoma, pd, read-out: Absolute IC50
[5] = test system: LXFE 1422 human tumor xenograft cells; assay: Oncotest tumor clonogenic assay, LXFE 1422; format: cell-based; details: colony formation, NSCLC LXFE 1422, squamous cell carcinoma, ud, read-out: Absolute IC50
[6] = test system: RXF 393 human tumor xenograft cells; assay: Oncotest tumor clonogenic assay, RXF 393; format: cell-based; details: colony formation, Renal RXF 393, hypernephroid carcinoma, pd, read-out: Absolute IC50
[7] = test system: RXF 486 human tumor xenograft cells; assay: Oncotest tumor clonogenic assay, RXF 486; format: cell-based; details: colony formation, Renal RXF 486, hypernephroid adeno carcinoma, clear cell, read-out: Absolute IC50

**Q.** Which IC50 (DNA-PK) does the source give for `CO[C@@H](C)Cn1c(=O)n(C)c2cnc3ccc(-c4cncc(C(C)(C)O)c4)cc3c21` [Example 1, 8-[5-(1-Hydroxy-1-methylethyl)pyridin-3-yl]-1-[(2S)-2-methoxypropyl]-3-methyl-1,3-dihydro-2H-imidazo[4,5-c]quinolin-2-one] here?
**A.** The IC50 was 0.00424 µM.

**Q.** And the IC50 [1]?
**A.** The IC50 was 0.35 µM.

**Q.** And the IC50 [2]?
**A.** The IC50 was 0.142 µM.

**Q.** And the IC50 [3]?
**A.** Its IC50 is 0.084 µM.

**Q.** What about the IC50 [4] of the same molecule?
**A.** The IC50 was 0.026 µM.

**Q.** And the IC50 [5]?
**A.** Its IC50 is 0.231 µM.

**Q.** And the IC50 [6]?
**A.** Its IC50 is 0.044 µM.

**Q.** What about the IC50 [7] of the same molecule?
**A.** Its IC50 is 0.112 µM.
